Experimental data published in ChEMBL document CHEMBL4431357, “Discovery of a novel class of highly potent inhibitors of the p53-MDM2 interaction by structure-based design starting from a conformational argument” (Bioorg Med Chem Lett, 2016).
pIC50: −log10 of the molar value.

Molecular target: Tumour suppressor p53/oncoprotein Mdm2 (Homo sapiens, UniProt Q00987)
Test: Inhibition of C-terminal biotin-tagged streptavidin labelled human MDM2 ( 2 to 188 residues)/Cy5-labelled p53 (18 to 26 residues)(unknown origin) interaction after 15 mins by TR-FRET assay
Format: protein assay

Tumour suppressor p53/oncoprotein Mdm2, sequence (P04637 whole entry, the tested form may be a part): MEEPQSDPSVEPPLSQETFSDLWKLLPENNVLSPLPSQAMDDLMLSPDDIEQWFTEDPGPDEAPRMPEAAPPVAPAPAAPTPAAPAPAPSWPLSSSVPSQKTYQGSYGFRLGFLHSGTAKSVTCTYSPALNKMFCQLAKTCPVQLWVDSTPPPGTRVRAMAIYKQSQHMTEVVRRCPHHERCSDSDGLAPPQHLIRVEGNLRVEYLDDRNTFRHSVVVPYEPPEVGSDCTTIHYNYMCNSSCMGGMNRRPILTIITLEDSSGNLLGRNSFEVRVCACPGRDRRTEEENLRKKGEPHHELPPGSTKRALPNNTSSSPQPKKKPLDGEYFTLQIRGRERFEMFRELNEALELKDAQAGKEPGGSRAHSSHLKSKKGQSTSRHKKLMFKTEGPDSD
Tumour suppressor p53/oncoprotein Mdm2, sequence (Q00987 whole entry, the tested form may be a part): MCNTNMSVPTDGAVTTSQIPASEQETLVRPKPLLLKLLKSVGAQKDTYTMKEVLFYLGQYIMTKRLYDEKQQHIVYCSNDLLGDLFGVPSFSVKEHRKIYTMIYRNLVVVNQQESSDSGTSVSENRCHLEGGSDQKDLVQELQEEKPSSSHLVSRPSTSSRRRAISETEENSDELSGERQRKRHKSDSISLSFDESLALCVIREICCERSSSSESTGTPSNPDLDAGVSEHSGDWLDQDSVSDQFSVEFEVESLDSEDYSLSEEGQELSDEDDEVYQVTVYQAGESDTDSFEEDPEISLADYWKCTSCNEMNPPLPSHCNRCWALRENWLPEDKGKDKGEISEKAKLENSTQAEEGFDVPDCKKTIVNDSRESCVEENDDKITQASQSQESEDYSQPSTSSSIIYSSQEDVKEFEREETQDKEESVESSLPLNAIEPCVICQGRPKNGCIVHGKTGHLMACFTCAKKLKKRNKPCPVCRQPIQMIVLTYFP

pIC50	Structure (SMILES)
7.74	CC(C)(C)c1n[nH]c2c1C(c1ccc(Cl)cc1)N(c1cccc(Cl)c1)C2=O (racemic)
6.46	Cc1n[nH]c2c1C(c1ccc(Cl)cc1)N(c1cccc(Cl)c1)C2=O (racemic)
7.49	CC(C)c1n[nH]c2c1C(c1ccc(Cl)cc1)N(c1cccc(Cl)c1)C2=O (racemic)
8.38	Cc1cc(Cl)ccc1C1c2c(C(C)C)n[nH]c2C(=O)N1c1cc(Cl)ccc1C (racemic)
5.82	Cc1ccc(N2C(=O)c3[nH]nc(C)c3C2c2ccc(Cl)cc2)cc1 (stereo not given)
